Measured values: patent US20130059772A1, “Use of Repeat Sequence Protein Polymers in Personal Care Compositions” (DANISCO US INC., priority 2003, published 2013)

Columns and labels:
[1] = Cloud point determination (turbidity at 300 nm, 20-80° C.); type: physicochemical; conditions: 0.05% solution in water
facial skin [2] = assay: Skin efficacy study: image analysis of Silflo replicas (fine line factors); type: in vivo, human
From the text: Eleven impaneled subjects (age 35-70 years) showing clear signs of facial skin aging were provided with a non-moisturizing soap, ([…]®), one week prior to the study and were instructed to use the provided soap to wash the face and were required to refrain from excessive UV exposure. After a seven-day conditioning phase, subjects were acclimated to the ambient temperature and humidity for thirty minutes. One side of the face of each subject was designated as the measurement side by random selection by computer. After 30-minute acclimation period, baseline digital photographs were taken, and instrumental measurements, skin replica samples and visual evaluations were made. Photographs were taken, with a Canfield Scientific Camera, of the full face, the periorbital area, and the temporal side of eye. Chromameter (Model CR300, Minolta) measurements were taken from the periorbital area directly under the eye (Chardon et al., Int. J. Cosmet. Sci., 13:191-208 [1991]). Silflo replicas (CuDerm Corporation, Dallas, Tx) were made from the periorbital area adjacent to the temporal side of the eye (Grove et al., J. Am. Acad. Dermatol., 21:631-637 [1998]; and Sun et al […] Conference, Mexico). […] Specifically, the fine line factors, which approximate the number and/or length of facial lines in the 10 evaluated bands of skin replica, were measured. […]

facial skin [3] = assay: Skin efficacy study: Chromameter a* (skin redness); type: in vivo, human
From the text: (§1) Eleven impaneled subjects (age 35-70 years) showing clear signs of facial skin aging were provided with a non-moisturizing soap, (AVEENO®), one week prior to the study and were instructed to use the provided soap to wash the face and were required to refrain from excessive UV exposure. After a seven-day conditioning phase, subjects were acclimated to the ambient temperature and humidity for thirty minutes. One side of the face of each subject was designated as the measurement side by random selection by computer. After 30-minute acclimation period, baseline digital photographs were taken, and instrumental measurements, skin replica samples and visual evaluations were made. Photographs were taken, with a Canfield Scientific Camera, of the full face, the periorbital area, and the temporal side of eye. Chromameter (Model CR300, Minolta) measurements were taken from the periorbital area directly under the eye (Chardon et al., Int. J. Cosmet. Sci., 13:191-208 [1991]). Silflo replicas (CuDerm Corporation, Dallas, Tx) were made from the periorbital area adjacent to the temporal side of the eye (Grove et al., J. Am. Acad. Dermatol., 21:631-637 [1998]; and Sun et al 1997 IFSCC Conference, Mexico). […]
Chromometer values for L*, a*, and b* were read and total color value, E, was calculated for each subject. […]

facial skin [4] = assay: Skin efficacy study: superficial facial line score (Packman and Gans); type: in vivo, human
From the text: as §1, with “[1991]).” for “[1991]). Silflo replicas (CuDerm Corporation, Dallas, Tx) were made from the periorbital area adjacent to the temporal side of the eye (Grove et al., J. Am. Acad. Dermatol., 21:631-637 [1998]; and Sun et al 1997 IFSCC Conference, Mexico).”
Evaluation of superficial facial lines was performed by an expert evaluator using the scoring method described by Packman and Gans (supra). A 7% decrease in the superficial facial line score was assessed at the 30-minute post-treatment interval compared to baseline, which was statistically significant at the 91% confidence level (p=0.09).

[5] = Water solubility of SELP47K films; type: physicochemical
From the text: The coating appeared to be comprised of densely packed intertwining strands. […] Short, single/double strands of material were found in areas where the coating appeared to be less concentrated. Individual strands of material could be seen in the less concentrated, gray areas on the wafer. SEM analysis of the films provide the basis of water-solubility of SELP47K films.

facial skin [6] = assay: Skin efficacy study: Cutometer Uv (viscoelasticity); type: in vivo, human; conditions: 5% aqueous solution applied once to face; 30 Minutes Post; baseline mean 0.09
From the text: as §1, with “Mexico). Cutometer (SEM575, Courage and Khazaka, Germany) measurements were taken at the periorbital area at the upper portion of cheekbone. All measurements were performed in triplicate.” for “Mexico).”

[7] = Isoelectric point determination (IEF gel); type: physicochemical
Method: In this Example, experiments performed to determine the isoelectric point and cloud point of SELP47K (Example 1) are described. The isoelectric point of SELP47K was determined by electrophoresing 5 mg/ml SELP47K solution using Isoelectric Focusing Electrophoresis (IEF) gel and Novex electrophoresis apparatus along with protein standards markers.

For “SELP47K: silk-elastin repeat sequence protein copolymer, head-[(GAGAGS)2(GVGVP)3GKGVP(GVGP)4(GAGAGS)2]13-tail (SEQ ID NO:19), 886 amino acids”, the cloud point [1] was “remains soluble in water even at 80 °C”, the “Fine Line Factors, Mean” value (facial skin [2]; 5% aqueous solution applied once to face, 30 Minutes Post, baseline mean 284) was 246 and the “decrease in fine line factors” value (facial skin [2]; 5% aqueous solution, 30 minutes after application vs baseline, p=0.05) was 13%. The “Chromameter a* Score, Mean” value (facial skin [3]; 5% aqueous solution applied once to face, 30 Minutes Post, baseline mean 11.05) was 10.39, the “decrease in average a* value (redness of the skin)” value (facial skin [3]; 5% aqueous solution, 30 minutes post vs baseline, p=0.024) was 6% and the “Superficial Facial Line Score, Mean” value (facial skin [4]; 5% aqueous solution applied once to face, 30 Minutes Post, baseline mean 40) was 37. For the same substance, the “decrease in the superficial facial line score” value (facial skin [4]; 5% aqueous solution, 30-minute post-treatment vs baseline, p=0.09) was 7%, the “water solubility of film” value ([5]; film made out of 10% SELP47K solution) was “water-soluble” and the “water solubility of film” value ([5]; film made out of 20% SELP47K solution) was “water insoluble”. The “Cutometer Uv Score, Mean” value (facial skin [6]) was 0.106, the Isoelectric Point ([7]; 5 mg/ml solution, IEF gel) was 10.4 and the “pI of the protein” value ([7]; stated in production example) was 10.5.
